Test results from patent US20260041770A1, “CELL MEMBRANE-ATTACHED HYALURONIC ACID-CD44 SPECIFIC BINDING REACTION POLYMER COMPOUND TO ENHANCE THE IMMUNE-ANTICANCER FUNCTION OF NATURAL KILLER CELLS” (DONGGUK UNIVERSITY INDUSTRY-ACADEMIC COOPERATION FOUNDATION, priority 2023, published 2026).

Tested on: NK92-mi NK cells
Test: NK cell surface modification efficiency (fluorescence intensity, cell coating efficacy)
Format: cell-based
Settings: polymer 1.0 mg/mL, 30 minutes at room temperature
Method: A polymer compound (HA-PEG-DSPE) was dissolved in MEM alpha at a concentration of 1.0 mg/mL, and 5×10^5 NK92-mi NK cells were evenly mixed with 100 μL of solution. The surface of NK cell was modified (HA-PEG-DSPE bound to NK cell) at room temperature for 30 minutes and then washed twice with MEM alpha. Cells were then lysed with 250 μL of RIPA buffer and stored at 4° C. for 30 minutes. Finally, 250 μL of distilled water was added, diluted, and transferred to 96-well to measure fluorescence intensity at 480/535 nm.

| Substance | fluorescence intensity on NK cell | cell coating efficacy of NK cell |
| --- | --- | --- |
| PEG600 | fluorescence intensity is not substantially measured | – |
| PEG2000 | strong fluorescence intensity is measured on the surface of NK cell | higher coating efficacy (cell coating efficacy, ng/10^5 cells) of NK cell compared to the polymer compound using PEG600 and PEG5000 |
